Test results from US20160363580A1, “Methods of Metabolic Kinetic Phenotyping and Uses Thereof” (The Texas A&M University System, priority 2015, published 2016).

Experiment: Pulse tracer protocol (bolus L-[15N]-Phe), two compartmental model of Phe kinetics
Format: in vivo, pigs
Settings: for EC Phe pool (extracellular Phe pool, Q1) / Flux of Phe between intra- and extracellular pool (F12, F21) / Frac. irr. loss (fractional irreversible loss of Phe from the intracellular pool, k02) / IC Phe pool (intracellular Phe pool, Q2) / IC Phe release (fractional intracellular release to extracellular pool, k12) / IC Phe uptake (fractional intracellular uptake from extracellular pool, k21) / Irr. loss (irreversible loss of Phe from the intracellular pool, F02): mean±SEM; for Q1 plasma pool size, mean value: SAAM II fit
Description: Female Yorkshire cross/domestic pigs (20-25 kg BW) were used in the experimental studies. The pigs were housed in steel pens (2 m×3 m) in a controlled housing facility with large animal cubicle at room temperature 22-24° C. with 12 hours light-dark cycle. The pigs were fed with standardized food 1 kg/day (Harlan Teklad Vegetarian Pig/Sow Grower)) and provided water ad libitum.
Animals received catheters and a jejunal stoma during a surgical procedure. During midline laparotomy, catheters were placed into the abdominal aorta for blood sampling, and in the caval vein for administering post-surgery medication and experiment related tracer infusions. A second arterial catheter was placed to monitor mean arterial blood pressure (MAP). A Swan ganz catheter (5 Fr, #132F5, Edwards life sciences, Irvine, Calif., USA) was placed via the right jugular vein to monitor mean pulmonary blood pressure (MPAP). Both preoperative and postoperative cares were standardized. During the recovery period (7-10 days) animals were accustomed to a small movable cage (0.9×0.5×0.3 m). The experiments were performed in this cage on awake animals. This study was approved by the animal experiment ethics committee of University of Arkansas Medical Sciences.
For the induction of sepsis, a live Pseudomonas aeruginosa (PM) human strain is used (IRS 12-4-4, Shriners burns institute, University of Texas Medical Branch, Galveston). Originally, this PM strain was isolated from a burnt patient at Brook Army Medical Center in San Antonio, Tex. Based on pilot virulence experiment, 10^9 Colony Forming Units per hour (CFU/hour) in a volume of 1 ml 0.9% NaCl solution was needed to obtain similar cardiovascular responses and hemodynamic variables with characteristics of severe hyperdynamic sepsis. Hemodynamics was continuously monitored to ensure that the hyperdynamic state was kept in the expected ranges for severe sepsis (body temp increase of 2-3° C., respiratory rate increased, MPAP increased but <35 mmHg, heart rate increased but <200 BPM).
The experiment started after a recovery period of 7-10 days. Four hours after the last food intake (half of the daily amount: 0.5 kg), animals were selected from the Sepsis group or the Healthy group in a randomized fashion. […] At T=0 h, sepsis was induced to the sepsis group by continuous infusion of Pseudomonas aeruginosa (PM, 10^9 CFU/ml/hour), while the Healthy group received an equal volume of 0.9% NaCl solution. Fluid resuscitation (30 ml/kg bw/hour) was also started at T=0 h and hemodynamics were monitored continuously. The results for the primed-continuous tracer protocol (PC) and the pulse tracer protocol were compared between 17 and 18 hours after the start of Pseudomonas aeruginosa. At t=18 h, the pigs were euthanized with 125 mg/k pentobarbital sodium and 16 mg phenytoin sodium (Euthanasol®).
Two stable isotopes of Phe: L-[ring-^13C6]-Phe and L-[^15N]-Phe (Cambridge Isotopes, Andover, Mass.) were used as tracers to study whole body rate of appearances of Phe (WbRa) with two tracer infusion protocols. Phe has been used to determine whole body protein breakdown. Previously studies were conducted based on the prime amount and tracer infusion rates. For the primed-continuous infusion protocol (PC), L-[ring-^13C6]-Phe was used. The prime (1.58 μmol/kg bw) and infusion (4.32 μmol/kg bw/hour) was given respectively in a volume of 2 ml/kg bw and 2 ml/kg bw/hour. It started 12 hours after the start of Pseudomonas aeruginosa, which is also 5 hours before the pulse protocol (PULSE). The L-[^15N]-Phe (26.3 μmol/kg bw in a volume 0.5 ml/kg bw) was used for the pulse protocol. All tracers are given via the central caval vein catheter.
Blood samples were taken and directly cooled on ice. The blood samples were processed within one hour. For amino acid concentration and enrichment analysis, heparinized blood was centrifuged at 4° C., 8000 G for 5 minutes. […]

k02 proportionality constant, mean value (Healthy pigs): 0.033 min⁻¹ | k12 proportionality constant, mean value (Healthy pigs): 0.051 min⁻¹ | k21 proportionality constant, mean value (Healthy pigs): 0.115 min⁻¹ | EC Phe pool (extracellular Phe pool, Q1) (Healthy pigs n=9): 44 ± 2.2 μmol/kg BW | Flux of Phe between intra- and extracellular pool (F12, F21) (Healthy pigs n=9): 5.02 ± 0.40 μmol/kg BW/min | Frac. irr. loss (fractional irreversible loss of Phe from the intracellular pool, k02) (Healthy pigs n=9): 3.33 ± 0.21 %/min | IC Phe pool (intracellular Phe pool, Q2) (Healthy pigs n=9): 105 ± 8.0 μmol/kg BW | IC Phe release (fractional intracellular release to extracellular pool, k12) (Healthy pigs n=9): 5.09 ± 0.69 %/min | IC Phe uptake (fractional intracellular uptake from extracellular pool, k21) (Healthy pigs n=9): 11.5 ± 0.71 %/min | Irr. loss (irreversible loss of Phe from the intracellular pool, F02) (Healthy pigs n=9): 3.38 ± 0.10 μmol/kg BW/min | Q1 plasma pool size, mean value (Healthy pigs): 1121 µmol | k02 proportionality constant, mean value (Sepsis pigs): 0.028 min⁻¹ | k12 proportionality constant, mean value (Sepsis pigs): 0.044 min⁻¹ | k21 proportionality constant, mean value (Sepsis pigs): 0.105 min⁻¹ | EC Phe pool (extracellular Phe pool, Q1) (Sepsis pigs n=13): 63 ± 5.5 μmol/kg BW | Flux of Phe between intra- and extracellular pool (F12, F21) (Sepsis pigs n=13): 6.86 ± 0.42 μmol/kg BW/min | Frac. irr. loss (fractional irreversible loss of Phe from the intracellular pool, k02) (Sepsis pigs n=13): 2.83 ± 0.15 %/min | IC Phe pool (intracellular Phe pool, Q2) (Sepsis pigs n=13): 157 ± 8.2 μmol/kg BW | IC Phe release (fractional intracellular release to extracellular pool, k12) (Sepsis pigs n=13): 4.43 ± 0.25 %/min | IC Phe uptake (fractional intracellular uptake from extracellular pool, k21) (Sepsis pigs n=13): 10.6 ± 0.76 %/min | Irr. loss (irreversible loss of Phe from the intracellular pool, F02) (Sepsis pigs n=13): 4.33 ± 0.16 μmol/kg BW/min | Q1 plasma pool size, mean value (Sepsis pigs): 1655 µmol | intracellular pool relative to extracellular pool (pigs): 2.2 times
Compound: N[C@@H](Cc1ccccc1)C(=O)O [Phe, phenylalanine]
